Measurements as given in ChEMBL document CHEMBL1201862, “PubChem BioAssay data set” (2004).
Activity calls are given as the source filed them.

Columns and labels:
[1] = molecular target: T1, Trace amine-associated receptor 1 (Homo sapiens, UniProt Q96RJ0); assay: Counterscreen for agonists of the human trace amine associated receptor 1 (hTAAR1): Fluorescence-based cell-based high throughput dose response assay to identify hTAAR1 agonist that also desensitize TAAR1 receptor response.; type: functional
T1 sequence (Q96RJ0 whole entry): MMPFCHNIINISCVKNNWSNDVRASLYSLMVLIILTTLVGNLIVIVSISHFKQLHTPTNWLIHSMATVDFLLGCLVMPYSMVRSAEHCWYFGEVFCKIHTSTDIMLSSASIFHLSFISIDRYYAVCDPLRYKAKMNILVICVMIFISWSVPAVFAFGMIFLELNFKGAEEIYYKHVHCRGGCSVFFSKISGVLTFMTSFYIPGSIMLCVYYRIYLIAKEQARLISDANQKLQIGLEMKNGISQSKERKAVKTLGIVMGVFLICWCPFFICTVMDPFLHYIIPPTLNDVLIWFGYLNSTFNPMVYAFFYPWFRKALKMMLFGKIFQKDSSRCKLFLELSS

cells [2] = type: functional, cell-based
cells [3] = type: functional, cell-based; remark: listed apart in the source
[4] = molecular target: Induced myeloid leukemia cell differentiation protein Mcl-1 (Homo sapiens, UniProt Q07820); type: functional
[5] = molecular target: T1, Trace amine-associated receptor 1; assay: Fluorescence-based cell-based high throughput dose response assay to identify agonists of the human trace amine associated receptor 1 (TAAR1).; type: functional
cells [6] = type: functional
[7] = bead-based luminescence quenchers, dual-tagged ARNT – biochemical, AlphaScreen, cherry-pick, artefact control for ARNT-TACC3 interaction inhibitor project, dose response (AID 651705); type: functional;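 further: AlphaScreen bead proximity signal that flags compounds interfering with the detection technology; potency reflects signal decrease which marks the compound as an assay artifact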
Nonstructural protein 1 = Nonstructural protein 1 (Influenza A virus, UniProt Q194T2); type: functional, Influenza A virus (A/California/07/2009(H1N1))
Beta-galactosidase = Beta-galactosidase (Escherichia coli, UniProt Q8VNN2); assay: Dose response counterscreen for EBI2 assay utilizing the enzyme, b-galactosidase.; type: functional
Phospholipase A2 = Phospholipase A2 (Homo sapiens, UniProt P04054); type: functional;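 further: confirmatory dose-response counterscreen on phospholipase A2, testing hits that came from an ultra-high-throughput screen for ATG4B inhibitors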
[8] = molecular target: T2, Sentrin-specific protease 6 (Homo sapiens, UniProt Q9GZR1); type: functional
T2 sequence (Q9GZR1 whole entry): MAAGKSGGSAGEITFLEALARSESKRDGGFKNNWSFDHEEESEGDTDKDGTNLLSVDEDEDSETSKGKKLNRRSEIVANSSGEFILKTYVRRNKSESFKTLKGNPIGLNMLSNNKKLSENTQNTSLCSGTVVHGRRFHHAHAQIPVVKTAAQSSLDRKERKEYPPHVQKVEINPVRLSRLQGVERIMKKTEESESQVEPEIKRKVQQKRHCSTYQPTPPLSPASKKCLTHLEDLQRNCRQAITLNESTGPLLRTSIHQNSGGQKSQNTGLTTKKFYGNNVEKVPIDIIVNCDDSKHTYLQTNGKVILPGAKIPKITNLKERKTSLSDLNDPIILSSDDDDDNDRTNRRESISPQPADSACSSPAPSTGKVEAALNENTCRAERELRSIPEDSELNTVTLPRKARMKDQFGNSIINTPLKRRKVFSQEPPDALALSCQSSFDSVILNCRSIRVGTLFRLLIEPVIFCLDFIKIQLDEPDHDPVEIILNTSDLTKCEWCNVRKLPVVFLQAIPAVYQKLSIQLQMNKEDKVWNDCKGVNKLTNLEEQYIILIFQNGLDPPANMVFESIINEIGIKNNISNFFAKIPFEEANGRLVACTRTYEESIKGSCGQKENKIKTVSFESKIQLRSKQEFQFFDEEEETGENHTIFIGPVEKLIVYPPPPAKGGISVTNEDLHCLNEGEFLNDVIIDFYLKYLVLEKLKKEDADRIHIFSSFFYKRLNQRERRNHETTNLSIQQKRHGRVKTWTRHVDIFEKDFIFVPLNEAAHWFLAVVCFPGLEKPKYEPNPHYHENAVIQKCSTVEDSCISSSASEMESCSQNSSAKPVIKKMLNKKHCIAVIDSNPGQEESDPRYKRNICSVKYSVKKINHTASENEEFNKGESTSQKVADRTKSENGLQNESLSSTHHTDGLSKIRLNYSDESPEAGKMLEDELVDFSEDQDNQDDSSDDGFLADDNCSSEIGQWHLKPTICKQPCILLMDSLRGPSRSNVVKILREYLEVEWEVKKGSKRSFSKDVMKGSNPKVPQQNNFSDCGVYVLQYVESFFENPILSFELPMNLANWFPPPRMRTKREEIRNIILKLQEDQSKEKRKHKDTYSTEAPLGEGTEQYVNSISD

Caspase-3 [9] = molecular target: T3, Caspase-3 (Homo sapiens, UniProt P42574); assay: SAR Analysis of small molecule inhibitors of Sentrin-specific proteases (SENPs) using a Caspase-3 Selectivity assay. [Related pubchem assays (depositor defined):AID2540, AID2599, AID434973, AID489001]; type: functional
T3 sequence (P42574 whole entry): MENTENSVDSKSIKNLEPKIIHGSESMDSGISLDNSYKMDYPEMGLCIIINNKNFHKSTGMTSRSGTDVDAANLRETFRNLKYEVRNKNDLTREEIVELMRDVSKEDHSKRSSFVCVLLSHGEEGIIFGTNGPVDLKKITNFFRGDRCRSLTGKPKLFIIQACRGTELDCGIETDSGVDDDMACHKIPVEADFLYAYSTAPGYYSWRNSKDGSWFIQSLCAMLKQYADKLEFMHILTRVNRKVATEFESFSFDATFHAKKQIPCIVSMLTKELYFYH

[10] = molecular target: T4, Sentrin-specific protease 8 (Homo sapiens, UniProt Q96LD8); type: functional;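 further: luminescence read-out of SENP8 inhibition, dose-response confirmation following an ultra-high-throughput screen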
T4 sequence (Q96LD8 whole entry): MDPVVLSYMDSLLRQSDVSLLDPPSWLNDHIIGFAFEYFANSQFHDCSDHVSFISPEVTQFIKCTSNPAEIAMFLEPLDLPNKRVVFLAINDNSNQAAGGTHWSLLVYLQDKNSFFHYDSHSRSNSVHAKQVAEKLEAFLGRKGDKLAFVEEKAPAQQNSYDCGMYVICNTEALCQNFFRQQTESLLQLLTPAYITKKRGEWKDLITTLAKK

[11] = molecular target: T2, Sentrin-specific protease 6; assay: SAR Analysis of small molecule inhibitors of Sentrin-specific protease 6 (SENP6) using a Luminescent assay. [Related pubchem assays (depositor defined):AID2582, AID2599]; type: functional
Caspase-3 [12] = molecular target: T3, Caspase-3; type: functional
[13] = molecular target: T4, Sentrin-specific protease 8; assay: inhibition of human SENP8 cleavage activity – biochemical, luminescence, SAR follow-up (AID 504501); type: functional
[14] = molecular target: T5, Sentrin-specific protease 7 (Homo sapiens, UniProt Q9BQF6); type: functional;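 further: Luminescence-based dose-response confirmation of ultra-high-throughput screening hits, measuring inhibition of SENP7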
T5 sequence (Q9BQF6 whole entry): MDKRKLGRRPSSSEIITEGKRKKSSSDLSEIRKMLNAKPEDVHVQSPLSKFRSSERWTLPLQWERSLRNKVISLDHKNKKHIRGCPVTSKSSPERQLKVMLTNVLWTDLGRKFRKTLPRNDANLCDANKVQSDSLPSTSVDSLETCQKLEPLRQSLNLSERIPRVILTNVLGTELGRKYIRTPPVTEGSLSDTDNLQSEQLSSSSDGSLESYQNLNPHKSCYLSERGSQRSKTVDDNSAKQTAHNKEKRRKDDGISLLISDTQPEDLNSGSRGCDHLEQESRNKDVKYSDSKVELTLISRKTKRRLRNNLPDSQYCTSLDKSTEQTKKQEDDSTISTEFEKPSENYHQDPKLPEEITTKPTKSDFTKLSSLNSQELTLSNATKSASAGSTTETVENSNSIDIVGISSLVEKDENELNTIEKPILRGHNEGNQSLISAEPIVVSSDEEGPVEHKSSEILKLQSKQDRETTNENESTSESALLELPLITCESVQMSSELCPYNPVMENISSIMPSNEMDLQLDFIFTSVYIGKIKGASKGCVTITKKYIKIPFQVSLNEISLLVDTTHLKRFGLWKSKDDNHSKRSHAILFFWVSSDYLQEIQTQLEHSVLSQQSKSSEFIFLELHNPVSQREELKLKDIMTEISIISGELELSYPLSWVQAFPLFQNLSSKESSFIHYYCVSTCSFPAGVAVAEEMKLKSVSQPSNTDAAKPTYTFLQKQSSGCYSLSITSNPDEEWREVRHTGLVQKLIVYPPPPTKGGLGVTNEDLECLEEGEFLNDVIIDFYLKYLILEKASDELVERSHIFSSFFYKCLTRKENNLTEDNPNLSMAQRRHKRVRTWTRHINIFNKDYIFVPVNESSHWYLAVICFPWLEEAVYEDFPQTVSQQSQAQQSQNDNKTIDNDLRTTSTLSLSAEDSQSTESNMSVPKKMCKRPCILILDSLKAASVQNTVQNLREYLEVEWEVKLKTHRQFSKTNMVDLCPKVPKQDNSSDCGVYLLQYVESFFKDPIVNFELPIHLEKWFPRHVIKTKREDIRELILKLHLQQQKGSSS

Cysteine protease ATG4B = molecular target: T6, Cysteine protease ATG4B (Homo sapiens, UniProt Q9Y4P1); type: functional;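 further: Fluorescence-based dose-response confirmation assay measuring inhibition of ATG4B activity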
T6 sequence (Q9Y4P1 whole entry): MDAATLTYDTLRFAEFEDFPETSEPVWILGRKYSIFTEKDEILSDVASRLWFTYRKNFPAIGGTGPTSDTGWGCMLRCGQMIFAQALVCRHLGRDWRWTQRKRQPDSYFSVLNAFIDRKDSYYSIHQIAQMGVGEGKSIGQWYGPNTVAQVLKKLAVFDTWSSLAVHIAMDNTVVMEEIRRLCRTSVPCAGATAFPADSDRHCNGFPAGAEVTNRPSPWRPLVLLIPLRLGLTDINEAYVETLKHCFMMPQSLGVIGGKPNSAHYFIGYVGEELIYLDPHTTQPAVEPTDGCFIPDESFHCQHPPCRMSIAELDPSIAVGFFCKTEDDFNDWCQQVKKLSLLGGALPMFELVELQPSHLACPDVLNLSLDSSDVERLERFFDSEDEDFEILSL

[15] = molecular target: T5, Sentrin-specific protease 7; assay: inhibition of human SENP7 cleavage activity – biochemical, luminescence, SAR follow-up (AID 504497); type: functional
[16] = viability of uninfected HEp-2 cells – cell-based, HTS, cytotoxicity control for RSV inhibitor project, dose response (AID 2410); type: functional; settings: human respiratory syncytial virus
[17] = molecular target: T7, Fructose-bisphosphate aldolase (Mycobacterium tuberculosis, UniProt P9WQA3); assay: Fluorescence-based biochemical high throughput dose response assay for inhibitors of the fructose-bisphosphate aldolase (FBA) of M. tuberculosis.; type: functional
T7 sequence (P9WQA3 whole entry): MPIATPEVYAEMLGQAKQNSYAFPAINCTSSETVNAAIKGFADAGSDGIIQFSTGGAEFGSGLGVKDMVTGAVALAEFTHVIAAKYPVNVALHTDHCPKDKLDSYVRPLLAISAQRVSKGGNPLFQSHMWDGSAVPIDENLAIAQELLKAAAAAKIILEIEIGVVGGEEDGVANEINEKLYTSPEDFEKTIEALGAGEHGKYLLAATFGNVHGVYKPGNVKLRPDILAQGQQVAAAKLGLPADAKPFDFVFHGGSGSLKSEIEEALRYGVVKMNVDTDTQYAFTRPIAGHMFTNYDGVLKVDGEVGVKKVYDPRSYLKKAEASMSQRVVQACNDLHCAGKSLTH

Sequence of Beta-galactosidase (Q8VNN2 whole entry): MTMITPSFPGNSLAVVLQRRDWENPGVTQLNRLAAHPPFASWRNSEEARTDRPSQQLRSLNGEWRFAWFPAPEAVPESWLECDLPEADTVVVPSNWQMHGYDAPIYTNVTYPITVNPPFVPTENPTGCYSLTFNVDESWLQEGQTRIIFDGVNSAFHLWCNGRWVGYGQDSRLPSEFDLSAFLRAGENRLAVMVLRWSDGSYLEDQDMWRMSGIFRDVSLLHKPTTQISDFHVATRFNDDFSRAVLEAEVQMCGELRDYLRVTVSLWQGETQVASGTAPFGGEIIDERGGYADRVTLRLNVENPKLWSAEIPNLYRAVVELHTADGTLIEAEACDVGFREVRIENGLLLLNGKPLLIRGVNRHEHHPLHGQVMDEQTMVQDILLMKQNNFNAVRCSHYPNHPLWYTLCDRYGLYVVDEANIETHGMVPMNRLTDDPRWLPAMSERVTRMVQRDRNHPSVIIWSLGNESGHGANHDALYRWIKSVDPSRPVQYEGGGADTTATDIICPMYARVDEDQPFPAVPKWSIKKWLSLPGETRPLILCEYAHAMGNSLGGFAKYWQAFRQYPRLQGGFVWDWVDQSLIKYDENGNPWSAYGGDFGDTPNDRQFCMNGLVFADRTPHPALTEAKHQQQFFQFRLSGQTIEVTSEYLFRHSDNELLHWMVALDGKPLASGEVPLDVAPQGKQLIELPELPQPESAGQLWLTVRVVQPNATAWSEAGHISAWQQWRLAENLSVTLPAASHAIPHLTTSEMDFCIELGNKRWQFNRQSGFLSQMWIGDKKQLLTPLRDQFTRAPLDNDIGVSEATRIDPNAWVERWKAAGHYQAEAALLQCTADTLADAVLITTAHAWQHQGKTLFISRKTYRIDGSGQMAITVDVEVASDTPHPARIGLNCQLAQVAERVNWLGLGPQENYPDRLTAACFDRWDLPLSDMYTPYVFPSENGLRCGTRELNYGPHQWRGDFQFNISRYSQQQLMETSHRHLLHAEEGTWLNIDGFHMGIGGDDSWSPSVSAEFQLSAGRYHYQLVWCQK
Sequence of Phospholipase A2 (P04054 whole entry): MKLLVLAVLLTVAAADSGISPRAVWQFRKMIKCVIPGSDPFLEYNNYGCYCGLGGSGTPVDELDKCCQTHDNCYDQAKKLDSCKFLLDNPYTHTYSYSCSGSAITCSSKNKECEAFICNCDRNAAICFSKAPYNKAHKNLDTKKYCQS
Sequence of Induced myeloid leukemia cell differentiation protein Mcl-1 (Q07820 whole entry): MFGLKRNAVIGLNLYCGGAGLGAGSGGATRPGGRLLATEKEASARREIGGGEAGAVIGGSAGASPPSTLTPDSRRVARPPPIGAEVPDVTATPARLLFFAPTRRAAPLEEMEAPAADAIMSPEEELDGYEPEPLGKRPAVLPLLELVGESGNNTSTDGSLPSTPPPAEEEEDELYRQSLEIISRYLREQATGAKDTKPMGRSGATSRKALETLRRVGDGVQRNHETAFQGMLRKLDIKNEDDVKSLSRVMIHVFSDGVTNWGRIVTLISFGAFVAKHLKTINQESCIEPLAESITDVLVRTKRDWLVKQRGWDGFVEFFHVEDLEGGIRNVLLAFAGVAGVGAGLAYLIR
Sequence of Nonstructural protein 1 (Q194T2 whole entry): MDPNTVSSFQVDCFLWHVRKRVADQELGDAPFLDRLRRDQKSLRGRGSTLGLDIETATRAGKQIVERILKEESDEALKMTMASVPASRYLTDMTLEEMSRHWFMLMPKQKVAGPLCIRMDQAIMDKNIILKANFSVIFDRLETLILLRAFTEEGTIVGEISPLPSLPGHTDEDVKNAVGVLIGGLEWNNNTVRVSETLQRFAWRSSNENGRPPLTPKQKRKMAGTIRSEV

## COc1cc(C(c2nnnn2C2CCCC2)N2CCc3ccccc3C2)ccc1O (stereo unspecified)
[1]
  IC50: 1.33 µM (active)
Cells [2]
  IC50: > 29.9 µM (inactive)
Cells [3]
  EC50: > 29.9 µM (inactive)
[4]
  IC50: 12.8 µM (active)
[5]
  EC50: 496 nM (active)

## COc1ccc(C(=O)Nc2nnc(C3=COCCO3)o2)cc1
Cells [6]
  IC50: 5.45 µM (active)
[7]
  AC50: 107 µM (active)

## c1ccc(CNCCN2CCNCC2)nc1
Nonstructural protein 1
  IC50: 7.87 µM (active)
[7]
  AC50: 121 µM (active)

## COc1cc(OC)c(C(=O)OCC(=O)Nc2nnc(-c3ccccc3)o2)cc1OC
[7]
  AC50: 112 µM (active)

## O=C(NCCc1ccccc1)c1ccc([N+](=O)[O-])cc1
[1]
  IC50: 7.32 µM (active)
Cells [2]
  IC50: > 29.9 µM (inactive)
Cells [3]
  EC50: > 29.9 µM (inactive)
[5]
  EC50: 2320 nM (active)

## O=C(c1cc2cc(Cl)ccc2[nH]1)N1CCN(c2ccccc2F)CC1
Beta-galactosidase
  IC50: > 80 µM (inactive)

## CC(C)(C)c1ccc2c(c1)C(=O)c1ccccc1C2=O
Phospholipase A2
  IC50: 6.46 µM (active)
[8]
  IC50: 4.05 µM (active)
Caspase-3 [9]
  IC50: 934 nM (active)
[10]
  IC50: > 100 µM (inactive)
[11]
  IC50: 927 nM (active)
Caspase-3 [12]
  IC50: > 100 µM (inactive)
[13]
  IC50: 1.12 µM (active)
[14]
  IC50: > 100 µM (inactive)
Cysteine protease ATG4B
  IC50: 9.47 µM (active)
[15]
  IC50: 635 nM (active)

## COc1ccc(C2=NN(C(=O)CSc3cn(C)c4ccccc34)C(c3ccc(OC)cc3)C2)cc1 (stereo unspecified)
Beta-galactosidase
  IC50: > 80 µM (inactive)
[16]
  CC50: 30.2 µM (active)

## Cc1cc(=O)oc2cc(OCC(=O)N3CCCC3)ccc12
[17]
  IC50: 2.54 µM (active)

## CC(Oc1ccc2c(c1)oc(=O)c1ccccc12)C(=O)NCCCN1CCOCC1 (stereo unspecified)
[17]
  IC50: 1.5 µM (active)

## N#Cc1c(O)ncc(/C=N/N=C/c2ccccc2)c1Nc1ccccc1
Beta-galactosidase
  IC50: > 80 µM (inactive)

## COc1ccc2cc(C(N)=O)/c(=N/c3ccccc3)oc2c1
[17]
  IC50: > 10 µM (inactive)
